From patent publication US9023789B2, “Amylin analogs and pharmaceutical compositions thereof” (Novo Nordisk A/S, priority 2012, dated 2015)
Numbered stars: 1 amine (or outer) side, 2 acyl side, 3 side chain; on linkers, the order of the positions; unused ones are H or OH. Bridge positions count the residues as written; N and C are the ends. Side chains are listed from the residue outwards. Peptide text beside a SMILES is read from it. * marks the point of attachment. C20 diacid = O=C(O)CCCCCCCCCCCCCCCCCCC(=O)*; γGlu = O=C(O)[C@H](CCC(=O)[*:2])N[*:1]

Tests used:
[1] = ASSAY (III) ThT fibrillation assay for physical stability; type: physicochemical
In short: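 Formulations with 1 μM ThT, pH adjusted as required, incubated at 37 °C with 960 rpm orbital shaking; fluorescence (ex 444/em 485 nm) read every 20 min. Fibrillation reported as mean ThT fluorescence ± SD of 4–8 replicates at time points; polypeptide concentration measured by reverse-phase HPLC before and after, post-centrifugation.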

[2] = biological target: T1, rat amylin receptor (rat calcitonin receptor + rat RAMP 3) (Rattus norvegicus, UniProt P32214+Q9JJ73); test: ASSAY (VI) binding to the rat amylin receptor; conditions: for IC50: binding to rat amylin receptor, read-out: rAmylin-R bind IC50
T1 construct: expressed in transfected cells; host or cells: BHK tk'ts 13 (transient, FuGENE 6), membranes
T1 sequence (P32214 25-479 isoform P32214-2 limits assumed): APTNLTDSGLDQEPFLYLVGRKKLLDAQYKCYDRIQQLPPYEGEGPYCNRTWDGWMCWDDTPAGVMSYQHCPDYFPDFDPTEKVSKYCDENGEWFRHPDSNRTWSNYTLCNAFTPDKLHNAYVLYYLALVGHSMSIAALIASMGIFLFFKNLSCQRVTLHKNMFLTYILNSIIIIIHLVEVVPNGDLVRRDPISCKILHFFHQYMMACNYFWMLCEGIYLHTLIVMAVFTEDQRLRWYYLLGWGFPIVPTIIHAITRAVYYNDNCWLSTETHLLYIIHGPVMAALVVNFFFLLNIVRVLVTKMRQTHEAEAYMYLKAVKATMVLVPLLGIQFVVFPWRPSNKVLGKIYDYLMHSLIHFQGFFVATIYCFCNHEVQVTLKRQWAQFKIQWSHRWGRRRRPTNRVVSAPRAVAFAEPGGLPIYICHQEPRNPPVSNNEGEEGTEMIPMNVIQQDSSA
T1 sequence (Q9JJ73 23-147 partner): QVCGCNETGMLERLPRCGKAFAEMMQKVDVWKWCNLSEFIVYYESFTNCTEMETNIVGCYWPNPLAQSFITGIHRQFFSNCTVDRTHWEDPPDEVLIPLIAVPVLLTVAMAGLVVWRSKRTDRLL
In short: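 Binding to the rat amylin receptor was determined with membrane preparations. The receptor was expressed by transiently transfecting BHK tk′ts 13 cells with rat calcitonin receptor, using FuGENE® 6 (Roche) according to the manufacturer's recommendations. Roughly 48 hours later the cells were harvested and their membranes isolated.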

[3] = Table 7, rat binding selectivity, rCTR IC50 / rAmylin-R IC50
[4] = Table 7a (preferred compounds), rat binding selectivity, rCTR IC50 / rAmylin-R IC50
[5] = ratio of rCTR bind IC50 to rAmylin-R bind IC50

Row | SMILES | ThT pH 4.0 lag time (h) [1] | IC50 ([2]; Table 7) | Ratio rCT/rAmylin binding [2, 3] | Ratio rCT/rAmylin binding [2, 4] | Ratio rCT/rAmylin binding [2, 5]
1 | CC[C@H](C)[C@H](NC(=O)[C@H](C)NC(=O)CNC(=O)[C@H](Cc1ccccc1)NC(=O)[C@H](CC(N)=O)NC(=O)[C@@H]1CCCN1C(=O)[C@H](CO)NC(=O)[C@H](CO)NC(=O)[C@H](Cc1c[nH]cn1)NC(=O)[C@H](CCCNC(=N)N)NC(=O)[C@H](CC(C)C)NC(=O)[C@H](Cc1ccccc1)NC(=O)[C@H](CCC(=O)O)NC(=O)[C@H](C)NC(=O)[C@H](CC(C)C)NC(=O)[C@H](CCCNC(=N)N)NC(=O)[C@H](CCC(N)=O)NC(=O)[C@@H](NC(=O)[C@H](C)NC(=O)[C@@H]1CSSC[C@H](NC(=O)[C@@H](N)CCCCNC(=O)CC[C@H](NC(=O)CCCCCCCCCCCCCCCCCCC(=O)O)C(=O)O)C(=O)N[C@@H](CC(N)=O)C(=O)N[C@@H]([C@@H](C)O)C(=O)N[C@@H](C)C(=O)N[C@@H]([C@@H](C)O)C(=O)N1)[C@@H](C)O)C(=O)N1CCC[C@H]1C(=O)N[C@@H](CO)C(=O)N[C@@H](CO)C(=O)N[C@H](C(=O)N[C@@H](CC(N)=O)C(=O)N[C@H](C(=O)NCC(=O)N1CCC[C@H]1C(=O)N[C@@H](CCCNC(=N)N)C(=O)N[C@H](C(=O)N[C@@H](Cc1ccc(O)cc1)C(N)=O)[C@@H](C)O)C(C)C)[C@@H](C)O [Example 117] (H-K([γGlu-C20 diacid])CNTATCATQRLAEFLRHSSPNFGAIPSSTNVGPRTY-NH2; disulfide 2-7; N-terminus assumed) | 45 h | 0.339 nM | 45.5 | 45.5 | 45.5
2 | CC[C@H](C)[C@H](NC(=O)[C@H](C)NC(=O)CNC(=O)[C@H](Cc1ccccc1)NC(=O)[C@H](CC(N)=O)NC(=O)[C@@H]1CCCN1C(=O)[C@H](CO)NC(=O)[C@H](CO)NC(=O)[C@H](Cc1c[nH]cn1)NC(=O)[C@H](CCCNC(=N)N)NC(=O)[C@H](CC(C)C)NC(=O)[C@H](Cc1ccccc1)NC(=O)[C@H](CCC(=O)O)NC(=O)[C@H](C)NC(=O)[C@H](CC(C)C)NC(=O)[C@H](CCCNC(=N)N)NC(=O)[C@H](CCC(N)=O)NC(=O)[C@@H](NC(=O)[C@H](C)NC(=O)[C@@H]1CSSC[C@H](NC(=O)[C@@H](N)CCCCNC(=O)CC[C@H](NC(=O)CCCCCCCCCCCCCCCCCCC(=O)O)C(=O)O)C(=O)N[C@@H](CC(N)=O)C(=O)N[C@@H]([C@@H](C)O)C(=O)N[C@@H](C)C(=O)N[C@@H]([C@@H](C)O)C(=O)N1)[C@@H](C)O)C(=O)N1CCC[C@H]1C(=O)N[C@@H](CO)C(=O)N[C@@H](CO)C(=O)N[C@H](C(=O)N[C@@H](CC(N)=O)C(=O)N[C@H](C(=O)NCC(=O)N1CCC[C@H]1C(=O)N[C@@H](Cc1c[nH]cn1)C(=O)N[C@H](C(=O)N[C@@H](Cc1ccc(O)cc1)C(N)=O)[C@@H](C)O)C(C)C)[C@@H](C)O [Example 118] (H-K([γGlu-C20 diacid])CNTATCATQRLAEFLRHSSPNFGAIPSSTNVGPHTY-NH2; disulfide 2-7) | 45 h | 0.104 nM | 52.2 | 52.2 | 52.2
3 | CC[C@H](C)[C@H](NC(=O)[C@H](C)NC(=O)CNC(=O)[C@H](Cc1ccccc1)NC(=O)[C@H](CC(N)=O)NC(=O)[C@@H]1CCCN1C(=O)[C@H](CO)NC(=O)[C@H](CO)NC(=O)[C@H](Cc1c[nH]cn1)NC(=O)[C@H](CCCNC(=N)N)NC(=O)[C@H](CC(C)C)NC(=O)[C@H](Cc1ccccc1)NC(=O)[C@H](CC(N)=O)NC(=O)[C@H](C)NC(=O)[C@H](CC(C)C)NC(=O)[C@H](CCCNC(=N)N)NC(=O)[C@H](CCC(N)=O)NC(=O)[C@@H](NC(=O)[C@H](C)NC(=O)[C@@H]1CSSC[C@H](NC(=O)[C@@H](N)CCCCNC(=O)CC[C@H](NC(=O)CC[C@H](NC(=O)CCCCCCCCCCCCCCCCCCC(=O)O)C(=O)O)C(=O)O)C(=O)N[C@@H](CC(N)=O)C(=O)N[C@@H]([C@@H](C)O)C(=O)N[C@@H](C)C(=O)N[C@@H]([C@@H](C)O)C(=O)N1)[C@@H](C)O)C(=O)N1CCC[C@H]1C(=O)N[C@@H](CO)C(=O)N[C@@H](CO)C(=O)N[C@H](C(=O)N1CCC[C@H]1C(=O)N[C@H](C(=O)NCC(=O)N1CCC[C@H]1C(=O)N[C@@H](CCCNC(=N)N)C(=O)N[C@H](C(=O)N[C@@H](Cc1ccc(O)cc1)C(N)=O)[C@@H](C)O)C(C)C)[C@@H](C)O [Example 119] (H-K([γGlu-γGlu-C20 diacid])CNTATCATQRLANFLRHSSPNFGAIPSSTPVGPRTY-NH2; disulfide 2-7) | 10 h | 0.381 nM | 137.4 | 137.4 | 137.4
4 | CC[C@H](C)[C@H](NC(=O)[C@H](C)NC(=O)CNC(=O)[C@H](Cc1ccccc1)NC(=O)[C@H](CC(N)=O)NC(=O)[C@@H]1CCCN1C(=O)[C@H](CO)NC(=O)[C@H](CO)NC(=O)[C@H](Cc1c[nH]cn1)NC(=O)[C@H](CCCNC(=N)N)NC(=O)[C@H](CC(C)C)NC(=O)[C@H](Cc1ccccc1)NC(=O)[C@H](CO)NC(=O)[C@H](C)NC(=O)[C@H](CC(C)C)NC(=O)[C@H](CCCNC(=N)N)NC(=O)[C@H](CCC(N)=O)NC(=O)[C@@H](NC(=O)[C@H](C)NC(=O)[C@@H]1CSSC[C@H](NC(=O)[C@@H](N)CCCCNC(=O)CC[C@H](NC(=O)CC[C@H](NC(=O)CCCCCCCCCCCCCCCCCCC(=O)O)C(=O)O)C(=O)O)C(=O)N[C@@H](CC(N)=O)C(=O)N[C@@H]([C@@H](C)O)C(=O)N[C@@H](C)C(=O)N[C@@H]([C@@H](C)O)C(=O)N1)[C@@H](C)O)C(=O)N1CCC[C@H]1C(=O)N[C@@H](CO)C(=O)N[C@@H](CO)C(=O)N[C@H](C(=O)N[C@@H](CC(N)=O)C(=O)N[C@H](C(=O)NCC(=O)N1CCC[C@H]1C(=O)N[C@@H](CCC(=O)O)C(=O)N[C@H](C(=O)N[C@@H](Cc1ccc(O)cc1)C(N)=O)[C@@H](C)O)C(C)C)[C@@H](C)O [Example 120] (H-K([γGlu-γGlu-C20 diacid])CNTATCATQRLASFLRHSSPNFGAIPSSTNVGPETY-NH2; disulfide 2-7 (inferred); N-terminus assumed) | 14 h | 0.161 nM | 867.7 | 867.7 | 867.7
5 | CC[C@H](C)[C@H](NC(=O)[C@H](C)NC(=O)CNC(=O)[C@H](Cc1ccccc1)NC(=O)[C@H](CC(N)=O)NC(=O)[C@@H]1CCCN1C(=O)[C@H](CO)NC(=O)[C@H](CO)NC(=O)[C@H](Cc1c[nH]cn1)NC(=O)[C@H](CCCNC(=N)N)NC(=O)[C@H](CC(C)C)NC(=O)[C@H](Cc1ccccc1)NC(=O)[C@H](CC(=O)O)NC(=O)[C@H](C)NC(=O)[C@H](CC(C)C)NC(=O)[C@H](CCCNC(=N)N)NC(=O)[C@H](CCC(N)=O)NC(=O)[C@@H](NC(=O)[C@H](C)NC(=O)[C@@H]1CSSC[C@H](NC(=O)[C@@H](N)CCCCNC(=O)CC[C@H](NC(=O)CC[C@H](NC(=O)CCCCCCCCCCCCCCCCCCC(=O)O)C(=O)O)C(=O)O)C(=O)N[C@@H](CC(N)=O)C(=O)N[C@@H]([C@@H](C)O)C(=O)N[C@@H](C)C(=O)N[C@@H]([C@@H](C)O)C(=O)N1)[C@@H](C)O)C(=O)N1CCC[C@H]1C(=O)N[C@@H](CO)C(=O)N[C@@H](CO)C(=O)N[C@H](C(=O)N[C@@H](CC(N)=O)C(=O)N[C@H](C(=O)NCC(=O)N1CCC[C@H]1C(=O)N[C@@H](CCC(=O)O)C(=O)N[C@H](C(=O)N[C@@H](Cc1ccc(O)cc1)C(N)=O)[C@@H](C)O)C(C)C)[C@@H](C)O [Example 122] (H-K([γGlu-γGlu-C20 diacid])CNTATCATQRLADFLRHSSPNFGAIPSSTNVGPETY-NH2; disulfide 2-7 (inferred); N-terminus assumed) | 45 h | 0.324 nM | 98.5 | 98.5 | 98.5
